Test results from US20220267289A1, “SELECTIVE BCRP/ABCG2 TRANSPORTER INHIBITORS AS AGENTS TO ABOLISH RESISTANCE TO ANTI-CANCER AGENTS” (UNIVERSITE GRENOBLE ALPES, priority 2019, published 2022).
Where two headings read alike, the source gives them in different places.

Experiments:
[1] = biological target: T1, BCRP/ABCG2 (Homo sapiens, UniProt Q9UNQ0); assay: BCRP-mediated mitoxantrone efflux inhibition, ABCG2-transfected HEK293 cells, flow cytometry; settings: for inhibition at 30 min, 1 μM / inhibition at 30 min, 10 μM / inhibition at 30 min, 1 µM: human, probe mitoxantrone (MX), 4 μM
T1 sequence (Q9UNQ0 1-655): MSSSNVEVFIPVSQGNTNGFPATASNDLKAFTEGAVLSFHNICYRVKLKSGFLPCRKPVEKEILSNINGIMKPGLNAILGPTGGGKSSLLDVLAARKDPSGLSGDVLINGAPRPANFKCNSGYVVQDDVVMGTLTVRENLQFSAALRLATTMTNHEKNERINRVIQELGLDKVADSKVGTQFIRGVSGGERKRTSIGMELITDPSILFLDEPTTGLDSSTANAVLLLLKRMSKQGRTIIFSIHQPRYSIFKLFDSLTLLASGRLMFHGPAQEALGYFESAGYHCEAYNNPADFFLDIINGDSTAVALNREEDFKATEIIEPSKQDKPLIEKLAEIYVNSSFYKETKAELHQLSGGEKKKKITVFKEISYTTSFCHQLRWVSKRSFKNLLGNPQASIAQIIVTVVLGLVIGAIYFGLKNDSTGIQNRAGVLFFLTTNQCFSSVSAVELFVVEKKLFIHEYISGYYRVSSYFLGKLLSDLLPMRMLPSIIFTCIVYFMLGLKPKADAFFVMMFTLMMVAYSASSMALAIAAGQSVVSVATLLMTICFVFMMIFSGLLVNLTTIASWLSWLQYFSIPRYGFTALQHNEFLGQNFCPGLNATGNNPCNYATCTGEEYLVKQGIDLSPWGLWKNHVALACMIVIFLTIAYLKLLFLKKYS
Protocol: The cells were seeded in 96-well plates at a density of 5×10^4 cells/well in 200 μL of medium and incubated overnight. Then the growth medium was changed to fresh medium containing the compounds and in the presence of 4 μM MX as a fluorescent probe for BCRP-mediated efflux at a final concentration of 0.5% (v/v) DMSO. After 30 min incubation at 37° C., the medium was removed, and the cells were washed with 100 μL of Dulbecco's phosphate-buffered saline (DPBS) followed by dissociation of the cells for 5 min at 37° C. mediated by 25 μL trypsin. Finally, trypsin was neutralised with 175 μL of DPBS ice-cold with 2% bovine serum albumin (BSA) and the cells were carefully resuspended. As a selectivity assay, the same experiment was performed for P-gp and MRP1-mediated efflux with 0.5 μM R123 or 0.2 μM cAM as respective fluorescent substrates instead of MX.
Intracellular fluorescence was measured with a MacsQUANT VRB Analyzer flow cytometer (Miltenyi Biotec) with at least 5000 events recorded. While MX was excited at 635 nm and the fluorescence emission recorded in a 655-730 nm window, R123 and cAM were excited at 488 nm and recorded in a 525/50 nm filter. The compound inhibition yield was estimated by the following equation:
where G2FA is the fluorescence emission (a.u.) of accumulated fluorophore in cells expressing the efflux pump incubated with a fluorescent substrate and the test compound. G2FBG is the resulting background fluorescence emission (a.u.) in cells transfected with ABCG2 (no substrate or test compound). G2S is the fluorescence emission (a.u.) of accumulated fluorophore in cells expressing the efflux pump incubated with substrate only. HEKFA is the fluorescence emission (a.u.) of accumulated fluorophore in control cells incubated with the substrate and test compound. HEKFBG is the resulting background fluorescence emission (a.u.) in control cells (no substrate or test compound). All values are given as the geometric mean fluorescence emission (a.u.) in a 655-730 nm filter (635 nm excitation) measured over 5000 events. The tests were performed in triplicate.

[2] = biological target: T2, P-gp (ABCB1) (Homo sapiens, UniProt P08183); assay: P-gp-mediated rhodamine 123 efflux inhibition (selectivity assay), ABCB1-transfected NIH/3T3 cells; format: cell-based; settings: probe rhodamine 123 (R123), 0.5 μM R123; for inhibition at 30 min, 1 μM: [Inhibitor] 1 μM; for inhibition at 30 min, 10 μM: [Inhibitor] 10 μM
T2 construct: expressed in transfected cells; host or cells: NIH/3T3
T2 sequence (P08183 whole entry): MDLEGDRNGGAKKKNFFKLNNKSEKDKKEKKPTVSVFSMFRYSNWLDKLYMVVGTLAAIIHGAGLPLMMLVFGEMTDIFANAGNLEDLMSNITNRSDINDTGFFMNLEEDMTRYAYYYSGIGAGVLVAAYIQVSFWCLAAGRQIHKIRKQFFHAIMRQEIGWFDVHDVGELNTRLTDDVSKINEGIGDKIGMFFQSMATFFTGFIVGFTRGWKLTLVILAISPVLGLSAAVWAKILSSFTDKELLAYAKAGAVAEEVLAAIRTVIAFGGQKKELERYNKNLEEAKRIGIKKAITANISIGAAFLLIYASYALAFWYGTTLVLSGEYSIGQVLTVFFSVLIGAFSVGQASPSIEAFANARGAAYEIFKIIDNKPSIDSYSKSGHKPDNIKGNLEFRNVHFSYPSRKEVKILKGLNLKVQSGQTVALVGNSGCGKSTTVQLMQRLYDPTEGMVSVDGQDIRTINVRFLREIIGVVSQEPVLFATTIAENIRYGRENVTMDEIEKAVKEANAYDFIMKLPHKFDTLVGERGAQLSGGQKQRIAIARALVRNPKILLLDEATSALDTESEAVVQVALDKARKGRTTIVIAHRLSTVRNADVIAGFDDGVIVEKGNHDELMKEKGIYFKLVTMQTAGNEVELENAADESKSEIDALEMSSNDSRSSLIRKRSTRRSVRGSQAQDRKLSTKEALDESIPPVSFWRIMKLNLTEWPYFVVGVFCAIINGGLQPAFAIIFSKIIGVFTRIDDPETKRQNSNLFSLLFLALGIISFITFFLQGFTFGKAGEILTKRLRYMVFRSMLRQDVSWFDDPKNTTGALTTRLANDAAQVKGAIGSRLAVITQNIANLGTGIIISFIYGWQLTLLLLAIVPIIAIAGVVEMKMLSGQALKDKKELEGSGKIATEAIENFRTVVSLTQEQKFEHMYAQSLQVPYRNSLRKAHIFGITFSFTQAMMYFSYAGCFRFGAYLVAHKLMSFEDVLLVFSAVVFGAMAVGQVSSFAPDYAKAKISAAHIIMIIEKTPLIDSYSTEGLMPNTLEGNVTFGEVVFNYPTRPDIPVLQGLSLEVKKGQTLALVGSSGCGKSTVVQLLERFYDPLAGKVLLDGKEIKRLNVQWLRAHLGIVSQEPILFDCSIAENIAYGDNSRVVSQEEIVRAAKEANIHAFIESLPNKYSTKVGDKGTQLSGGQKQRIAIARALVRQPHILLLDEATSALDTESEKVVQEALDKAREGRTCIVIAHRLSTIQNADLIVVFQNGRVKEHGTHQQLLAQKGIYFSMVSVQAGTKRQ
Protocol: (§1) The tests were performed in triplicate.

[3] = biological target: T3, MRP1 (ABCC1) (Homo sapiens, UniProt P33527); assay: MRP1-mediated calcein-AM efflux inhibition (selectivity assay), ABCC1-transfected Flp-In 293 cells; format: cell-based; settings: probe calcein-AM (cAM), 0.2 μM cAM; for inhibition at 30 min, 1 μM: [Inhibitor] 1 μM; for inhibition at 30 min, 10 μM: [Inhibitor] 10 μM
T3 construct: expressed in transfected cells; host or cells: Flp-In 293
T3 sequence (P33527 whole entry): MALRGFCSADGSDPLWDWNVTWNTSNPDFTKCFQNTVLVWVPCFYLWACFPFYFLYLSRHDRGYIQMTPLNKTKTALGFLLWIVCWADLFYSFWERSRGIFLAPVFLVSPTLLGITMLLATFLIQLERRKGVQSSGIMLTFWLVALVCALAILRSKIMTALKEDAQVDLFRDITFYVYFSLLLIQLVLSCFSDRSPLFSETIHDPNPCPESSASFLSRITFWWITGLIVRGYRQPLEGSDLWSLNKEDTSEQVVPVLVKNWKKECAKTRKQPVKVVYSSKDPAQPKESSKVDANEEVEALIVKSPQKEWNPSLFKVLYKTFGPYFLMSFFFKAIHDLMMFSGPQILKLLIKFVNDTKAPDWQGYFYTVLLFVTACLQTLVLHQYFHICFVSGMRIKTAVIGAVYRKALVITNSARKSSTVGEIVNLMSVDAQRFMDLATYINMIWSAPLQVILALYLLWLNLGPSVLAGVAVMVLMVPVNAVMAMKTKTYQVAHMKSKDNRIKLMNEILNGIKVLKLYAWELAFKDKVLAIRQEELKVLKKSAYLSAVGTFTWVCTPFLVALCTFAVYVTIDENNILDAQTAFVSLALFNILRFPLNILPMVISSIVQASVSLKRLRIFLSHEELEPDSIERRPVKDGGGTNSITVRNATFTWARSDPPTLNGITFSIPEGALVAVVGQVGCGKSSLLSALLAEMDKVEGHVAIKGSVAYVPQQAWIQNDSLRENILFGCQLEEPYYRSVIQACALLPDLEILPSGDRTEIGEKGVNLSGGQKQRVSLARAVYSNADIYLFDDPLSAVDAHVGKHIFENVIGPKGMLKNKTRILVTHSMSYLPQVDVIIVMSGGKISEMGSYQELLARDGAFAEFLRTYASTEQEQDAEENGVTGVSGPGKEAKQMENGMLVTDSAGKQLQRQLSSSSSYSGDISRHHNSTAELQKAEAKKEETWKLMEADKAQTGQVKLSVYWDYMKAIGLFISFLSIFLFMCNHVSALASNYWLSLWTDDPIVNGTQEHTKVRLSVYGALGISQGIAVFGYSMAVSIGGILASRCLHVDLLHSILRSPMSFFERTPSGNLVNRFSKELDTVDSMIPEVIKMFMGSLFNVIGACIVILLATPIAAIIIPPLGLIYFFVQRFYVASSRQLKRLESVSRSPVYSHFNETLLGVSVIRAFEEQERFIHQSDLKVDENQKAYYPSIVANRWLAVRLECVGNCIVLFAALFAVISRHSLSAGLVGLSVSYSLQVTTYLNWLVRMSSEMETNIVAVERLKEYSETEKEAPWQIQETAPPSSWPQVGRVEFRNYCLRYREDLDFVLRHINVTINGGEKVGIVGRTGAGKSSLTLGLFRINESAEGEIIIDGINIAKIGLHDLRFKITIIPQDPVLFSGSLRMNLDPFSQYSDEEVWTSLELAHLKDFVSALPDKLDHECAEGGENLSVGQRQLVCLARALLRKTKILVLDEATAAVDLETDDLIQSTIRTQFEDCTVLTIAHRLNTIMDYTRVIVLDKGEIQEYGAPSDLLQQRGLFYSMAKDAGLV
Protocol: as §1

[4] = hydrolysis of tertiary butyl ester to inactive metabolite; cited from earlier work

SMILES | melting point [°C] | inhibition at 30 min, 1 μM [2] [%] | inhibition at 30 min, 10 μM [2] [%] | inhibition at 30 min, 1 μM [3] [%] | inhibition at 30 min, 10 μM [3] [%] | IC50 [1] [nM] | inhibition at 30 min, 1 μM [1] [%] | inhibition at 30 min, 10 μM [1] [%] | inhibition at 30 min, 1 µM [1] [%] | IC50 ([1]; ABCG2 inhibition, Table 2) [nM] | rapidly metabolised, time [4] [min]
CCC(C)[C@H](NC(=O)c1cc(=O)c2c(OCc3ccccc3Br)cccc2o1)C(=O)OC (stereo partly shown) [5a (series 1)] | 123.1 to 125.7 |  |  |  |  | 100 ± 10 | 78 ± 9 | 143 ± 22 |  |  | 
CCC(C)[C@H](NC(=O)c1cc(=O)c2c(OCc3ccc(Br)cc3)cccc2o1)C(=O)OC (stereo partly shown) [5b (series 1)] |  |  |  |  |  | 590 ± 80 |  | 115 ± 14 |  |  | 
CCC(C)[C@H](NC(=O)c1cc(=O)c2c(OCc3ccccc3Br)cccc2o1)C(=O)O (stereo partly drawn) [6a (series 1), (5-((2-bromobenzyl)oxy)-4-oxo-4H-chromene-2-carbonylamino)-L-alloisoleucine] | 242.8 to 243.7 | 7.8 | 7.9 ± 2.3 | 17.1 | 13.1 ± 2.4 |  | 0 | 1.6 ± 3.1 |  |  | 
O=C(N[C@@H](Cc1ccccc1)C(=O)O)c1cc(=O)c2c(OCc3ccc(Br)cc3)cccc2o1 [6d (series 1), (5-((4-bromobenzyl)oxy)-4-oxo-4H-chromene-2-carbonylamino)-L-phenylalanine] |  |  |  |  |  |  | 4 ± 0.7 | 6.5 |  |  | 
CC[C@@H](C)[C@H](NC(=O)c1cc(=O)c2c(OCc3ccccc3Br)cccc2o1)C(=O)N[C@H](C(=O)OC)C(C)C [7a (series 2)] |  | 0.1 | 0.2 | 11.1 ± 0.8 | 10.8 ± 2.8 | 70 ± 10 |  |  | 84.8 ± 7.4 |  | 
COc1ccc2[nH]cc(CCNC(=O)c3cc(=O)c4c(OCc5ccc(Br)cc5Br)cccc4o3)c2c1 [7a (series 3), 5-((2,4-dibromobenzyl)oxy)-N-(2-(5-methoxy-1H-indol-3-yl)ethyl)-4-oxo-4H-chromene-2-carboxamide] |  |  |  |  |  | 50 ± 10 |  |  |  |  | 
CC[C@@H](C)[C@H](NC(=O)c1cc(=O)c2c(OCc3ccccc3Br)cccc2o1)C(=O)N[C@@H](CC(C)C)C(=O)OC [7b (series 2)] |  | 1.7 ± 2.4 | 2.4 ± 0.5 | 10.3 ± 0.7 |  | 70 ± 10 |  |  | 82.5 ± 9.7 |  | 
COc1ccc2[nH]cc(CCNC(=O)c3cc(=O)c4c(OCc5cc(Br)cc(Br)c5)cccc4o3)c2c1 [7b (series 3), ((3,5-dibromobenzyl)oxy)-N-(2-(5-methoxy-1H-indol-3-yl)ethyl)-4-oxo-4H-chromene-2-carboxamide] |  |  |  |  |  |  |  |  |  | 100 ± 10 | 
COc1ccc2c3c([nH]c2c1)[C@H](CC(C)C)N1C(=O)[C@H](CCC(=O)OC(C)(C)C)NC(=O)[C@@H]1C3 [Ko143] |  |  |  |  |  |  |  |  |  |  | 60
COc1ccc2[nH]cc(CCNC(=O)c3cc(=O)c4c(OCc5ccc(Br)cc5)cccc4o3)c2c1 [MBL-II-141, reference compound] |  |  |  |  |  |  |  |  |  | 130 ± 90 | 

Second part, led by results:

melting point [°C] | inhibition at 30 min, 1 μM [2] [%] | inhibition at 30 min, 10 μM [2] [%] | inhibition at 30 min, 1 μM [3] [%] | inhibition at 30 min, 10 μM [3] [%] | SMILES | IC50 [1] [nM] | inhibition at 30 min, 1 μM [1] [%] | inhibition at 30 min, 10 μM [1] [%] | inhibition at 30 min, 1 µM [1] [%] | IC50 ([1]; ABCG2 inhibition, Table 2) [nM] | rapidly metabolised, time [4] [min]
60.3 to 60.4 | 7 ± 1.1 | 4.8 ± 0.7 | 20.2 ± 2.7 | 19.2 ± 2.2 | COC(=O)[C@H](CC(C)C)NC(=O)c1cc(=O)c2c(OCc3ccccc3Br)cccc2o1 [5c (series 1), methyl (5-((2-bromobenzyl)oxy)-4-oxo-4H-chromene-2-carbonylamino)-L-leucinate] | 140 ± 40 | 115 ± 17 | 102 ± 21.7 | 114 |  | 
127 to 128.2 | 7.9 ± 0.7 | 6.5 ± 1.9 | 12.6 ± 1.3 | 17.8 ± 0.9 | COC(=O)[C@@H](NC(=O)c1cc(=O)c2c(OCc3ccccc3Br)cccc2o1)C(C)C [5d (series 1), methyl (5-((2-bromobenzyl)oxy)-4-oxo-4H-chromene-2-carbonylamino)-L-valinate] | 50 ± 30 | 87 ± 7 | 148 ± 6.7 | 86.6 |  | 
 | 6.4 ± 1.5 | 6.8 ± 1.4 | 23 | 19 | COC(=O)[C@H](Cc1ccccc1)NC(=O)c1cc(=O)c2c(OCc3ccc(Br)cc3)cccc2o1 [5f (series 1), methyl (5-((4-bromobenzyl)oxy)-4-oxo-4H-chromene-2-carbonylamino)-L-phenylalaninate] |  |  |  |  |  | 
250 to 252.8 | 7.4 ± 0.3 | 5.3 ± 0.5 | 23 ± 2.5 | 16 ± 2.5 | COC(=O)[C@H](Cc1c[nH]c2ccccc12)NC(=O)c1cc(=O)c2c(OCc3ccccc3Br)cccc2o1 [5g (series 1), methyl (5-((2-bromobenzyl)oxy)-4-oxo-4H-chromene-2-carbonylamino)-L-tryptophanate] |  | 93.7 ± 17 | 39.7 ± 3.7 | 93.7 |  | 
235.3 to 236.2 | 7.4 ± 2.5 | 6.6 ± 1.4 | 10.3 | 17.4 | COC(=O)[C@H](Cc1c[nH]c2ccccc12)NC(=O)c1cc(=O)c2c(OCc3ccc(Br)cc3)cccc2o1 [5h (series 1), methyl (5-((4-bromobenzyl)oxy)-4-oxo-4H-chromene-2-carbonylamino)-L-tryptophanate] | 480 ± 70 | 92 ± 15 | 87.7 ± 12 | 96.4 |  | 
236.2 to 237.9 | 7.2 ± 1.3 | 6.1 ± 1.1 | 11.9 | 12.6 | COC(=O)[C@@H](Cc1c[nH]c2ccccc12)NC(=O)c1cc(=O)c2c(OCc3ccc(Br)cc3)cccc2o1 [5i (series 1), methyl (5-((4-bromobenzyl)oxy)-4-oxo-4H-chromene-2-carbonylamino)-D-tryptophanate] | 290 ± 50 | 85 ± 12 | 96.3 ± 19 | 84.8 |  | 
 | 7.7 ± 1.9 | 7.1 ± 0.6 | 21.9 ± 4.6 | 20.6 ± 1.2 | CC[C@@H](C)[C@H](NC(=O)c1cc(=O)c2c(OCc3ccc(Br)cc3)cccc2o1)C(=O)O [6b (series 1), (5-((4-bromobenzyl)oxy)-4-oxo-4H-chromene-2-carbonyl)-L-alloisoleucine] |  |  |  |  |  | 
185.5 to 186.7 |  |  |  |  | O=C(N[C@H](Cc1c[nH]c2ccccc12)C(=O)O)c1cc(=O)c2c(OCc3ccc(Br)cc3)cccc2o1 [6e (series 1), (5-((4-bromobenzyl)oxy)-4-oxo-4H-chromene-2-carbonylamino)-D-tryptophan] |  | 6.1 ± 0.6 | 11.2 ± 2 |  |  | 
 | 2.4 ± 2.1 | 10.6 ± 0.3 | 11.5 ± 0.4 | 15.3 ± 1.5 | CC[C@@H](C)[C@H](NC(=O)c1cc(=O)c2c(OCc3ccc(Br)cc3)cccc2o1)C(=O)N[C@H](C(=O)OC)C(C)C [7c (series 2)] | 250 ± 100 |  |  | 72.4 ± 7.1 |  | 
 | 3.6 ± 0.2 | 5.9 ± 0.1 | 10.9 ± 1.4 | 14.7 ± 1 | CC[C@@H](C)[C@H](NC(=O)c1cc(=O)c2c(OCc3ccc(Br)cc3)cccc2o1)C(=O)N[C@@H](CC(C)C)C(=O)OC [7d (series 2), methyl (5-((4-bromobenzyl)oxy)-4-oxo-4H-chromene-2-carbonylamino)-L-alloisoleucyl-L-leucinate] | 110 ± 30 |  |  | 52.3 ± 5.1 |  | 
